Results reported in patent US20200331925A1, “HETEROCYCLIC COMPOUNDS FOR THE TREATMENT OF ABNORMAL CELLULAR PROLIFERATION” (G1 Therapeutics, Inc., priority 2018, published 2020).

How the values were obtained:
Type in all cases: biochemical
CDK6/Cyclin D3 = CDK6/Cyclin D3 (Homo sapiens, UniProt Q00534); test: CDK6/Cyclin D3 kinase assay (Nanosyn, Caliper microfluidic); settings: 12-point dose-response, ATP at Km (300 μM), 3 hr
Experimental: (§1) Selected compounds disclosed herein were tested in kinase assays by Nanosyn (Santa Clara, Calif.) to determine their inhibitory effect on selected CDKs. The assays were performed using microfluidic kinase detection technology (Caliper Assay Platform). The compounds were tested in 12-point dose-response format in singlicate at Kmfor ATP. Phosphoacceptor substrate peptide concentration used was 1 μM for all assays and Staurosporine was used as the reference compound for all assays. Specifics of each assay are as described below: CDK6/Cyclin D3: Enzyme concentration: 2 nM; ATP concentration: 300 μM; Incubation time: 3 hr.

CDK1/Cyclin B1 = CDK1/Cyclin B1 (Homo sapiens, UniProt P06493); test: CDK1/Cyclin B1 kinase assay (Nanosyn, Caliper microfluidic); settings: 12-point dose-response, ATP at Km (40 μM), 3 hr
Experimental: as §1, with “below: CDK1/Cyclin B1:” for “below: CDK6/Cyclin D3:”, “concentration: 0.08” for “concentration: 2”, “concentration: 40” for “concentration: 300”

CDK5/p35 = CDK5/p35 (Homo sapiens, UniProt Q00535); test: CDK5/p35 kinase assay (Nanosyn, Caliper microfluidic); settings: 12-point dose-response, ATP at Km (20 μM), 3 hr
Experimental: as §1, with “below: CDK5/p35:” for “below: CDK6/Cyclin D3:”, “concentration: 0.05” for “concentration: 2”, “concentration: 20” for “concentration: 300”

CDK9/Cyclin T = CDK9/Cyclin T (Homo sapiens, UniProt P50750); test: CDK9/Cyclin T kinase assay (Nanosyn, Caliper microfluidic); settings: 12-point dose-response, ATP at Km (10 μM), 17 hr; Table 5
Experimental: as §1, with “below: […]:” for “below: CDK6/Cyclin D3:”, “concentration: 5” for “concentration: 2”, “concentration: 10” for “concentration: 300”, “time: 17” for “time: 3”

CDK2/Cyclin A = CDK2/Cyclin A (Homo sapiens, UniProt P24941); test: CDK2/Cyclin A kinase assay (Nanosyn, Caliper microfluidic); settings: 12-point dose-response, ATP at Km (50 μM), 3 hr
Experimental: as §1, with “below: CDK2/Cyclin A:” for “below: CDK6/Cyclin D3:”, “concentration: 0.1” for “concentration: 2”, “concentration: 50” for “concentration: 300”

CDK7/Cyclin H = CDK7/Cyclin H (Homo sapiens, UniProt P50613); test: CDK7/Cyclin H kinase assay (Nanosyn, Caliper microfluidic); settings: 12-point dose-response, ATP at Km (50 μM), 17 hr
Experimental: as §1, with “below: CDK7/Cyclin H:” for “below: CDK6/Cyclin D3:”, “concentration: 10” for “concentration: 2”, “concentration: 50” for “concentration: 300”, “time: 17” for “time: 3”

CDK2/Cyclin E = CDK2/Cyclin E (Homo sapiens, UniProt P24941); test: CDK2/Cyclin E kinase assay (Nanosyn, Caliper microfluidic); settings: 12-point dose-response, ATP at Km (100 μM), 3 hr
Experimental: as §1, with “below: CDK2/Cyclin E:” for “below: CDK6/Cyclin D3:”, “concentration: 0.15” for “concentration: 2”, “concentration: 100” for “concentration: 300”

CDK3/Cyclin E = CDK3/Cyclin E (Homo sapiens, UniProt Q00526); test: CDK3/Cyclin E kinase assay (Nanosyn, Caliper microfluidic); settings: 12-point dose-response, ATP at Km (400 μM), 3 hr
Experimental: as §1, with “below: CDK3/Cyclin E:” for “below: CDK6/Cyclin D3:”, “concentration: 1” for “concentration: 2”, “concentration: 400” for “concentration: 300”

CDK4/Cyclin D1 = CDK4/Cyclin D1 (Homo sapiens, UniProt P11802); test: CDK4/Cyclin D1 kinase assay (Nanosyn, Caliper microfluidic); settings: 12-point dose-response, ATP at Km (200 μM), 3 hr; Table 4
Experimental: as §1, with “below: CDK4/Cyclin D1:” for “below: CDK6/Cyclin D3:”, “concentration: 1” for “concentration: 2”, “concentration: 200” for “concentration: 300”

CDK5/p25 = CDK5/p25 (Homo sapiens, UniProt Q00535); test: CDK5/p25 kinase assay (Nanosyn, Caliper microfluidic); settings: 12-point dose-response, ATP at Km (20 μM), 3 hr
Experimental: as §1, with “below: CDK5/p25:” for “below: CDK6/Cyclin D3:”, “concentration: 0.1” for “concentration: 2”, “concentration: 20” for “concentration: 300”

Sequence of CDK7/Cyclin H (P50613 whole entry): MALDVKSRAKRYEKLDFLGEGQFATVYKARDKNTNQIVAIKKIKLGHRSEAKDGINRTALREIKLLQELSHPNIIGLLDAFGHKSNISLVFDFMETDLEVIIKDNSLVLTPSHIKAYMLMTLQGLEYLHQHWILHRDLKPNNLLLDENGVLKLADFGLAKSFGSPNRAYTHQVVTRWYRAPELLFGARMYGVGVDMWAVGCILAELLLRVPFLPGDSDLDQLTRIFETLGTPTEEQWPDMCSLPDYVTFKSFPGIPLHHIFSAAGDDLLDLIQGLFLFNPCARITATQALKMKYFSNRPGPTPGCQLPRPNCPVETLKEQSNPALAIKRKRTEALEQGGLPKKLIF
Sequence of CDK7/Cyclin H (P51946 whole entry partner): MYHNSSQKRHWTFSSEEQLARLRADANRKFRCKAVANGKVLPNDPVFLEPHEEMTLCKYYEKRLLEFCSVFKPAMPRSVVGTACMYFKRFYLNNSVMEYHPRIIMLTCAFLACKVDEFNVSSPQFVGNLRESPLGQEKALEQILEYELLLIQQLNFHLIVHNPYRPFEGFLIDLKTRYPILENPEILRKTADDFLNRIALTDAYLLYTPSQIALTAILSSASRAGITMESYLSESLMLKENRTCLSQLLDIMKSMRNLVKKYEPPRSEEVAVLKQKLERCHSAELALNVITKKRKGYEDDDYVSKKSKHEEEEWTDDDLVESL
Sequence of CDK7/Cyclin H (P51948 whole entry partner): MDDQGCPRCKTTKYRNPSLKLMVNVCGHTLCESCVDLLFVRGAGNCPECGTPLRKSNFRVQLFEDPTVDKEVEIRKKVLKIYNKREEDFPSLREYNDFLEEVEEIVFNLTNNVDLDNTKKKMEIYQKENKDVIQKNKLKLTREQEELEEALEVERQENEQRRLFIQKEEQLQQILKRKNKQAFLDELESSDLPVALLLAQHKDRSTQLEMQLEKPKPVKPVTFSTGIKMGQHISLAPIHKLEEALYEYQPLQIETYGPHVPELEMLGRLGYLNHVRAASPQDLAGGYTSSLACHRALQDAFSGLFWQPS
Sequence of CDK6/Cyclin D3 (Q00534 whole entry): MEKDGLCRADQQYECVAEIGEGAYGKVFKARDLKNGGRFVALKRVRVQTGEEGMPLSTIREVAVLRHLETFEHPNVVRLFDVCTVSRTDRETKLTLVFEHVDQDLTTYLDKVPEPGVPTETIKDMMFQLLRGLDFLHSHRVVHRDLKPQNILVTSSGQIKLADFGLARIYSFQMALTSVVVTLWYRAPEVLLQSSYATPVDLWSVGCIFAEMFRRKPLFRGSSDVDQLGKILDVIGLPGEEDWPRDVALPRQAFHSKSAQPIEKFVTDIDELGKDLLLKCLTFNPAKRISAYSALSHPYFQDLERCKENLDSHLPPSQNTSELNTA
Sequence of CDK6/Cyclin D3 (P30281 whole entry partner): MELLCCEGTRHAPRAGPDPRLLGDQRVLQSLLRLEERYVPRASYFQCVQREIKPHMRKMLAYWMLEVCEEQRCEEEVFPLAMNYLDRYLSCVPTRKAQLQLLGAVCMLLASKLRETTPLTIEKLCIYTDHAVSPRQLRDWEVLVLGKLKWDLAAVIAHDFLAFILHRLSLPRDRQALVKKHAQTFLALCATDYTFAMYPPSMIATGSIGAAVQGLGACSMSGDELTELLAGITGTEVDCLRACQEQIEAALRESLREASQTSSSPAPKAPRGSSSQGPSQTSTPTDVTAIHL
Sequence of CDK4/Cyclin D1 (P11802 whole entry): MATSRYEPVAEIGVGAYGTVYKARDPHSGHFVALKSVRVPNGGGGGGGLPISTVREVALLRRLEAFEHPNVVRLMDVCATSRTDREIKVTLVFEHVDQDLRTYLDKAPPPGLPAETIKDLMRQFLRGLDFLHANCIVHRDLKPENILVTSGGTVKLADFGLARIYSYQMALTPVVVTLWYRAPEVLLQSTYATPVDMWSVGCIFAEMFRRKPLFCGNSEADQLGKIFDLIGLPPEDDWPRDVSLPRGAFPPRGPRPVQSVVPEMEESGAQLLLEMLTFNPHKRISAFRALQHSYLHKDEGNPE
Sequence of CDK4/Cyclin D1 (P24385 whole entry partner): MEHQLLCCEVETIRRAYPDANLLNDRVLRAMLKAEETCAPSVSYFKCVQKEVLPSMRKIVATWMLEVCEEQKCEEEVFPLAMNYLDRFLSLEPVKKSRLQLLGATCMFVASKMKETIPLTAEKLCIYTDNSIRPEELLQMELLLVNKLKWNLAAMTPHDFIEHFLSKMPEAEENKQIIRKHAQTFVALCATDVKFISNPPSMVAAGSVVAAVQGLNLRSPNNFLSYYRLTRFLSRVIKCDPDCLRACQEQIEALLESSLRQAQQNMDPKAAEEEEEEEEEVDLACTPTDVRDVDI
Sequence of CDK9/Cyclin T (P50750 whole entry): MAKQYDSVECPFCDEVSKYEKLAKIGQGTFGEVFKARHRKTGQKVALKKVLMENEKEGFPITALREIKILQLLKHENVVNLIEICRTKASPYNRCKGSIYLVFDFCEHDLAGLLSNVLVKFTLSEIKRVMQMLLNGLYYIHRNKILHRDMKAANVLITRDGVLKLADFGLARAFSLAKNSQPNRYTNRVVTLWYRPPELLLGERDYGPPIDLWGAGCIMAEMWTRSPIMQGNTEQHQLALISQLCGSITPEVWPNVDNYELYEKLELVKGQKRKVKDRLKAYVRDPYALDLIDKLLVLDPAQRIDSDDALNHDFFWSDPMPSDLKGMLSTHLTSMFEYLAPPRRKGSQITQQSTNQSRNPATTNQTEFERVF
Sequence of CDK9/Cyclin T (O60563 whole entry partner): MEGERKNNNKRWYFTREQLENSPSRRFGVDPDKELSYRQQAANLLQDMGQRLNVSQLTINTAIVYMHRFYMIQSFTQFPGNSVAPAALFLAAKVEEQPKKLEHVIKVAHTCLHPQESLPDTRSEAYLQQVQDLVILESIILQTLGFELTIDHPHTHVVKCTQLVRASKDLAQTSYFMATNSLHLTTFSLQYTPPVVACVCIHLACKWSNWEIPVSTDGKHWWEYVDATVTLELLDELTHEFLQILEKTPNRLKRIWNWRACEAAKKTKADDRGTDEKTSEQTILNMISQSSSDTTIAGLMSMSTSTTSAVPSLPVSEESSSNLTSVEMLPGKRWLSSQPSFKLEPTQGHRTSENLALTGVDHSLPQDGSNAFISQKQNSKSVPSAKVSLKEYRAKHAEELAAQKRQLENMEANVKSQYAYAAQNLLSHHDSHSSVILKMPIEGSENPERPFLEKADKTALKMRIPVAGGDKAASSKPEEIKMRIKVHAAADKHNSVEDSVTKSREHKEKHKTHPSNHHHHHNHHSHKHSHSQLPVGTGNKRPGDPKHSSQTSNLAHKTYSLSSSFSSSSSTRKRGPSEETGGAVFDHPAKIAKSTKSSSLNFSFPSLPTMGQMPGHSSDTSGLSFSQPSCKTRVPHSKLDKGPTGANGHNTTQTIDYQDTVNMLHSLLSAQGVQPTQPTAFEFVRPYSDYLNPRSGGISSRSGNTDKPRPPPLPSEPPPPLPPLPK
Sequence of CDK5/p25 (Q00535 whole entry): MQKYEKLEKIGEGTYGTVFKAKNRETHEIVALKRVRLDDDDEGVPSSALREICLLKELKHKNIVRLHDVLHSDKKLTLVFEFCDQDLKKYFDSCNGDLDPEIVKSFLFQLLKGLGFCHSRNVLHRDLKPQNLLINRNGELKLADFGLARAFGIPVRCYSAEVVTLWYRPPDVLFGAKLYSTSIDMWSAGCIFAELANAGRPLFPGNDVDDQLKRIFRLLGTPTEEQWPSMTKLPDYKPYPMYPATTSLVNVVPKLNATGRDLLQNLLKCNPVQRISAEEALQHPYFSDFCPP
Sequence of CDK5/p25 (Q15078 99-307 partner limits assumed): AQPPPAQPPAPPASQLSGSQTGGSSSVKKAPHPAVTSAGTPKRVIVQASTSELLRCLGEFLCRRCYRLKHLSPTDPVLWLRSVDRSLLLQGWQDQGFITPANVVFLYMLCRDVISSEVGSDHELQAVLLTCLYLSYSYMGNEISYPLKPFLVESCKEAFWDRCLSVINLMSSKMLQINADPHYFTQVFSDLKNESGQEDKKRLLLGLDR
Sequence of CDK5/p35 (Q00535 whole entry): as the sequence (Q00535 whole entry) above
Sequence of CDK5/p35 (Q15078 whole entry partner): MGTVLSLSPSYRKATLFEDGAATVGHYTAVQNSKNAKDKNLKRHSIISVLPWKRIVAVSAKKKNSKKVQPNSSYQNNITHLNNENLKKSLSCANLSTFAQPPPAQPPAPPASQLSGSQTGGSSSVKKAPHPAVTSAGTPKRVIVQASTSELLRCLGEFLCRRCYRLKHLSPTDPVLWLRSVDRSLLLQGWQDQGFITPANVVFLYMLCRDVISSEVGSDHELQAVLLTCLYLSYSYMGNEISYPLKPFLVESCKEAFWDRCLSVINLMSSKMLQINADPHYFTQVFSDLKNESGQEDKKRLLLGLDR

Row | SMILES | IC50 (CDK6/Cyclin D3) [µM] | IC50 (CDK1/Cyclin B1) [µM] | IC50 (CDK5/p35) [µM] | IC50 (CDK9/Cyclin T) [µM] | IC50 (CDK2/Cyclin A) [µM] | IC50 (CDK7/Cyclin H) [µM] | IC50 (CDK2/Cyclin E) [µM] | IC50 (CDK3/Cyclin E) [µM] | IC50 (CDK4/Cyclin D1) [µM] | IC50 (CDK5/p25) [µM]
1 | O=C1NCC2(CCCCC2)n2c1cc1cnc(N[C@H]3CC[C@H](NC4CCOCC4)CC3)nc12 [Compound 16, 2′-(((1r,4r)-4-((tetrahydro-2H-pyran-4-yl)amino)cyclohexyl)amino)-7′,8′-dihydro-6′H-spiro[cyclohexane-1,9′-pyrazino[1′,2′:1,5]pyrrolo[2,3-d]pyrimidin]-6′-one] | 0.072 | 0.091 | 0.47 | 0.0027 | 0.11 | 0.17 | 0.19 | 0.24 | 0.013 | 0.48
2 | O=C1NCC2(CCCCC2)n2c1cc1cnc(N[C@H]3C[C@@H](O)CNC3=O)nc12 [Compound 7, 2′-(((3S,5R)-5-hydroxy-2-oxopiperidin-3-yl)amino)-7′,8′-dihydro-6′H-spiro[cyclohexane-1,9′-pyrazino[1′,2′:1,5]pyrrolo[2,3-d]pyrimidin]-6′-one] | 5.6 | > 100 | > 100 | 3.4 | 65 | > 100 | > 100 | > 100 | 0.82 | > 100
3 | O=C1NCC2(CCCCC2)n2c1cc1cnc(NC(=O)[C@H]3CNCCO3)nc12 [Compound 35, (R)-N-(6′-oxo-7′,8′-dihydro-6′H-spiro[cyclohexane-1,9′-pyrazino[1′,2′:1,5]pyrrolo[2,3-d]pyrimidin]-2′-yl)morpholine-2-carboxamide] | > 100 | 31 | 40 | 0.088 | 10 | 61 | 26 | 54 | 27 | 43
4 | O=C1NCC2(CCCCC2)n2c1cc1cnc(N[C@H]3CC[C@H](Nc4ncc(F)cn4)CC3)nc12 [Compound 19, 2′-(((1,4-trans)-4-((5-fluoropyrimidin-2-yl)amino)cyclohexyl)-12-azaneyl)-7′,8′-dihydro-6′H-spiro[cyclohexane-1,9′-pyrazino[1′,2′:1,5]pyrrolo[2,3-d]pyrimidin]-6′-one] | 0.075 | 0.096 | 0.12 | 0.0021 | 0.071 | 0.74 | 0.11 | 0.22 | 0.0086 | 0.12
5 | CN1CCN([C@H]2CC[C@@H](Nc3ncc4cc5n(c4n3)C3(CCCCC3)CNC5=S)CC2)CC1 [Compound 39, 2′-(((1s,4s)-4-(4-methylpiperazin-1-yl)cyclohexyl)amino)-7′,8′-dihydro-6′H-spiro[cyclohexane-1,9′-pyrazino[1′,2′:1,5]pyrrolo[2,3-d]pyrimidine]-6′-thione] | 0.048 | 1.2 | 1.5 | 0.013 | 0.14 | 0.5 | 0.3 | 0.42 | 0.0095 | 1.6

Next, values leading:

Row | IC50 (CDK6/Cyclin D3) [µM] | IC50 (CDK1/Cyclin B1) [µM] | IC50 (CDK5/p35) [µM] | IC50 (CDK9/Cyclin T) [µM] | IC50 (CDK2/Cyclin A) [µM] | IC50 (CDK7/Cyclin H) [µM] | IC50 (CDK2/Cyclin E) [µM] | IC50 (CDK3/Cyclin E) [µM] | IC50 (CDK4/Cyclin D1) [µM] | IC50 (CDK5/p25) [µM] | SMILES
6 | 1.1 | 0.28 | 0.18 | 0.023 | 0.28 | 0.042 | 0.19 | 0.064 | 0.31 | 0.19 | C1=NCC2(CCCCC2)n2c1cc1cnc(N[C@H]3CCCNC3)nc12 [Compound 50, (S)-N-(piperidin-3-yl)-8′H-spiro[cyclohexane-1,9′-pyrazino[1′,2′:1,5]pyrrolo[2,3-d]pyrimidin]-2′-amine]
7 | 0.1 | 0.49 | 0.32 | 0.0062 | 0.17 | 0.27 | 0.29 | 0.47 | 0.024 | 0.27 | O=C1NCC2(CCCCC2)n2c1cc1cnc(N[C@H]3CC[C@H](N4CCOCC4)CC3)nc12 [Compound 44, 2′-(((1,4-trans)-4-morpholinocyclohexyl)amino)-7′,8′-dihydro-6′H-spiro[cyclohexane-1,9′-pyrazino[1′,2′:1,5]pyrrolo[2,3-d]pyrimidin]-6′-one]
8 | 0.078 | 0.51 | 0.71 | 0.0064 | 0.25 | 0.28 | 0.47 | 0.52 | 0.021 | 0.76 | O=C1NCC2(CCCCC2)n2c1cc1cnc(N[C@H]3CC[C@H](N4CCCCC4)CC3)nc12 [Compound 46, 2′-(((1,4-trans)-4-(piperidin-1-yl)cyclohexyl)amino)-7′,8′-dihydro-6′H-spiro[cyclohexane-1,9′-pyrazino[1′,2′:1,5]pyrrolo[2,3-d]pyrimidin]-6′-one]
9 | 0.23 | 0.51 | 1.3 | 0.009 | 0.39 | 0.33 | 1.1 | 1 | 0.051 | 1.2 | O=C1NCC2(CCCCC2)n2c1cc1cnc(N[C@@H]3CCCNC3)nc12 [Compound 48, (R)-2′-(piperidin-3-ylamino)-7′,8′-dihydro-6′H-spiro[cyclohexane-1,9′-pyrazino[1′,2′:1,5]pyrrolo[2,3-d]pyrimidin]-6′-one]
